Experimental data taken from the supplement of paper PMC10307832.

How the values were obtained:
Test in all cases: relative viability (nuclei count vs DMSO), 5 days (fraction); higher = more cells survive
[1] = compound: O=c1cc(-c2cccc3c2Sc2ccccc2S3)oc(N2CCOCC2)c1
In short: (§1)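 On vehicle-anchored 1536-well plates, lung cancer cell lines held overnight at 37 °C were pinned with five library-drug doses (not always all listed) spaced by √10. With no medium change over 5 days, they were then fixed, permeabilised and Hoechst-stained in one step and imaged at 4×. MetaXpress counted nuclei, and viability is the median across plates of treated-well over vehicle-well nuclei. Acceptance needed control CV below 25% and at least one doubling.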

[2] = compound: CCN(CC)CCCCNc1ncc2cc(-c3cc(OC)cc(OC)c3)c(NC(=O)NC(C)(C)C)nc2n1
In short: as §1

[3] = compound: C1COCCN1C2=CC(=O)C3=C(O2)C(=CC=C3)C4=CC=CC5=C4SC6=CC=CC=C56
In short: as §1

PRIMA-1MET = compound: COCC1(CO)C(=O)C2CCN1CC2 [PRIMA-1MET]
In short: as §1

Zibotentan = compound: COc1nc(C)cnc1NS(=O)(=O)c1cccnc1-c1ccc(-c2nnco2)cc1 [Zibotentan]
In short: as §1

Row | Cell Line | relative viability ([1]; 0.08 µM) | relative viability ([1]; 0.253 µM) | relative viability ([1]; 0.8 µM) | relative viability ([1]; 8 µM) | relative viability ([2]; 0.01 µM) | relative viability ([2]; 0.03162 µM) | relative viability ([2]; 0.1 µM) | relative viability ([2]; 0.3162 µM) | relative viability ([2]; 1 µM) | relative viability ([3]; 0.01 µM) | relative viability ([3]; 0.03162 µM) | relative viability ([3]; 0.1 µM) | relative viability ([3]; 0.3162 µM) | relative viability ([3]; 1 µM) | relative viability (PRIMA-1MET; 0.2 µM) | relative viability (PRIMA-1MET; 0.6325 µM) | relative viability (PRIMA-1MET; 2 µM) | relative viability (PRIMA-1MET; 6.325 µM) | relative viability (PRIMA-1MET; 20 µM) | relative viability (Zibotentan; 0.08 µM) | relative viability (Zibotentan; 0.253 µM) | relative viability (Zibotentan; 0.8 µM) | relative viability (Zibotentan; 2.53 µM) | relative viability ([1]; 2.53 µM)
1 | NCI-H1734 | 0.98 | 1.13 | 1.1 | 1.13 | 0.949 | 1.1 | 1.09 | 1.03 | 0.85 | 0.977 | 1.01 | 0.883 | 0.997 | 0.964 | 1.03 | 0.75 | 0.734 | 0.945 | 0.0584 | 1.04 | 0.884 | 1.02 | 1 | –
2 | LCLC-103H | 0.96 | 1.01 | 1 | 1.05 | 1.01 | 1.01 | 1.02 | 0.952 | 0.687 | 1.06 | 1.02 | 1.01 | 0.903 | 0.997 | 1.04 | 0.875 | 0.805 | 1.02 | 0.993 | 1.08 | 0.98 | 0.923 | 1.01 | 0.953
3 | BEN | 0.876 | 0.931 | 0.946 | 1.18 | 1 | 0.89 | 1 | 1.01 | 0.816 | 0.919 | 1.04 | 0.931 | 1.04 | 0.897 | 0.982 | 0.825 | – | 1.06 | 1.01 | 1.06 | 0.782 | 0.936 | 0.941 | 0.996
4 | NCI-H2405 | 0.958 | 0.998 | 0.979 | 1.14 | 0.988 | 1.03 | 1.13 | 1.08 | 0.982 | 1.03 | 0.906 | 1.03 | 1.1 | 0.958 | 0.881 | 0.972 | – | 0.952 | 0.509 | 1.06 | 0.942 | 1.03 | 1.09 | 0.878
5 | ABC-1 | 0.922 | 1.09 | 0.808 | 1.12 | 0.957 | 0.838 | 1.25 | 1.07 | 0.869 | 0.917 | 1.16 | 1.03 | 1.04 | 0.954 | 0.953 | 0.621 | 0.903 | 0.829 | 0.247 | 1.06 | 0.753 | 0.96 | 1 | 0.976
6 | 201T | 0.952 | 0.971 | 0.844 | 1.03 | 0.976 | 0.972 | 1.01 | 0.954 | 0.898 | 0.988 | 0.989 | 1.01 | 0.954 | 0.953 | 1.07 | 0.93 | 0.758 | 1.01 | 0.987 | 1.01 | 0.968 | 0.986 | 0.978 | 0.944
7 | UMC-11 | 0.998 | 1.18 | 1.09 | 1.25 | 1.03 | 0.915 | 1.01 | 1.01 | 0.98 | 0.986 | 0.952 | 0.982 | 1.02 | 0.989 | 1.05 | 0.887 | 0.848 | 0.97 | 0.944 | 1.01 | 1.01 | 0.951 | 0.978 | 0.916
8 | HCC-44 | 0.956 | 1.04 | 0.919 | 1.04 | 0.982 | 0.976 | 1.07 | 1.05 | 1.06 | 0.981 | 1.04 | 1.01 | 0.979 | 0.933 | 1.05 | 0.921 | 1.04 | 0.922 | 0.974 | 1.07 | 0.935 | 0.978 | 0.986 | 0.905
9 | LK-2 | 1.09 | 1.16 | 1.06 | 1.45 | 1.06 | 0.944 | 0.903 | 0.709 | 0.312 | 1.03 | 1.07 | 1.12 | 0.97 | 1.07 | 1.06 | 0.925 | 0.602 | 0.514 | 0.197 | 1.24 | 0.923 | 0.906 | 0.953 | 0.9
10 | NCI-H2126 | 0.986 | 1.03 | 0.862 | 1.03 | 1.02 | 0.992 | 1.06 | 1.07 | 0.983 | 0.972 | 1 | 1 | 1.01 | 0.98 | 1.03 | 0.978 | 0.901 | 1.03 | 0.978 | 1.01 | 0.965 | 0.913 | 1.05 | 0.932
11 | NCI-H1650 | 0.851 | 1.07 | 0.844 | 0.868 | 0.981 | 0.983 | 1.08 | 0.981 | 0.706 | 0.788 | 0.893 | 0.998 | 0.957 | 0.788 | 1.1 | 0.858 | 0.793 | 0.912 | 0.489 | 0.937 | – | 0.994 | 0.968 | 0.888
12 | HOP-62 | 1.03 | 1.11 | 1.13 | 1.14 | 1.06 | 1.09 | 1.21 | 1.06 | 1.05 | 1.08 | 1 | 0.997 | 0.954 | 0.981 | 1.06 | 0.989 | 0.915 | 1.14 | 0.744 | 1.03 | 1.03 | 1.16 | 1.01 | 0.886
13 | LC-2-ad | 0.924 | 1.1 | 1.06 | 1.02 | 1.02 | 1.05 | 1.1 | 1.15 | 0.88 | 1.01 | 1.07 | 1.01 | 1.01 | 1.01 | 1.03 | 0.84 | 0.819 | 1.05 | 0.935 | 1.03 | 0.868 | 0.993 | 1.03 | 0.967
14 | LOU-NH91 | 0.92 | 1.02 | 0.868 | 0.981 | 0.91 | 0.975 | 1.03 | 1.12 | 0.949 | 0.905 | 0.974 | 0.928 | 1.1 | 0.92 | 1.15 | 0.894 | 0.81 | 0.999 | 0.655 | 0.969 | 0.876 | 1.01 | 1.08 | 0.79
